According to patent EP1297826A1, “Nasal pharmaceutical compositions containing a NK-2 antagonist” (Menarini Ricerche S.p.A., priority 2001, dated 2003):
Read-outs that look alike come from different tables or passages of the source.

What was measured:
[1] = human, in vivo
[2] = rat, in vivo
[3] = dog, in vivo
[4] = in vivo
visceral hyperalgesia = conditions: animal models of IBS; cited from earlier work
[5] = rat, in vivo; cited from earlier work
[6] = rat, in vivo; cited from earlier work; remark: listed apart in the source

oral bioavailability [1]: 1% | Maximum bioavailability [2]: ≤ 20% | Maximum bioavailability [3]: ≤ 2% | Maximum bioavailability [4]: ≤ 2%
Substance: cyclo ( [Asn(β--D-2-deoxy-2-acetamido-Glc)-Asp-Trp-Phe-Dap-Leu]cyclo(2β--5β-)) [nepadutant]
visceral hyperalgesia (visceral hyperalgesia): corrects visceral hyperalgesia | oral bioavailability [5]: 1% | absoption [6]: > 80%
